Calls of active or inactive are those of the source. The calls are words filed in the database; no cut-off is given here.
Key:
[1] = Antioxidant activity assessed as trolox equivalents of AAPH radical scavenging activity at 10 uM preincubated for 15 mins followed by AAPH addition measured every minute for 120 mins by ORAC-FL assay; type: functional
[2] = target: T1, Amyloid-beta precursor protein (Homo sapiens, UniProt P05067); experiment: Inhibition of HFIP-pretreated amyloid beta (1 to 42) (unknown origin) self-induced aggregation at 10 uM after 48 hrs by thioflavin T-based fluorometric assay relative to control
T1 sequence (P05067 whole entry): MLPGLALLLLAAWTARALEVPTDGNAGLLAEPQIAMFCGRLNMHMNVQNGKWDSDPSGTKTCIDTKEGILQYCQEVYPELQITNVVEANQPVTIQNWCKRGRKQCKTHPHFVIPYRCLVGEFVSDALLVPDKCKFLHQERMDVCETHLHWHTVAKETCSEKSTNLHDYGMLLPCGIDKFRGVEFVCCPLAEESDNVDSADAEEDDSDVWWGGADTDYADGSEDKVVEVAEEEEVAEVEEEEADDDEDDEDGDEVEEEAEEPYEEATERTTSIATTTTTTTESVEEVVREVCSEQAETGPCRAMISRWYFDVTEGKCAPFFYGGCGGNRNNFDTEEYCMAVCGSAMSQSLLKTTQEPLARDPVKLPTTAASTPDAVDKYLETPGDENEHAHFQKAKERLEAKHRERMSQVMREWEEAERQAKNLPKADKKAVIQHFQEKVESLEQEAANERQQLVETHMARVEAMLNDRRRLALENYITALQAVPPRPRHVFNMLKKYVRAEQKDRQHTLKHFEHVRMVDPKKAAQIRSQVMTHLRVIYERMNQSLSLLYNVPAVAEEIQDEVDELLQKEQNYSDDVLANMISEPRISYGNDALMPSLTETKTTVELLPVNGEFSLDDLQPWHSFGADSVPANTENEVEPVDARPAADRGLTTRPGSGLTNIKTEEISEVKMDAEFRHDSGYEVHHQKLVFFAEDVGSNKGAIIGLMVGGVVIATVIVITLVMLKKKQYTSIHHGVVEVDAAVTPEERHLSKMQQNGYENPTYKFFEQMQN

[3] = target: T1, Amyloid-beta precursor protein; experiment: Inhibition of HFIP-pretreated amyloid beta (1 to 42) (unknown origin) self-induced aggregation after 48 hrs by thioflavin T-based fluorometric assay
in vitro = settings: PAMPA
Description: Permeability of the compound at 100 ug/ml after 10 hrs by PAMPA

PC-12 = experiment: Cytoprotection against H2O2-induced oxidative stress in rat PC12 cells assessed as increase in cell viability up to 10 uM after 24 hrs by MTT assay; type: functional, cell-based
[4] = Inhibition of Cu2+ - induced amyloid beta (1 to 42) (unknown origin) aggregation at 50 uM after 24 hrs by thioflavin T-based fluorometric assay relative to control
[5] = Inhibition of Zn2+ - induced amyloid beta (1 to 42) (unknown origin) aggregation at 50 uM after 24 hrs by thioflavin T-based fluorometric assay relative to control

SMILES | inhibition [2] | IC50 [3] | Papp at 10 h, 100 ug/ml (in vitro) | inhibition [4] | inhibition [5] | Activity [1] | Activity (PC-12)
COc1ccc(/C=C/C(=O)N2CCN(Cc3ccc(O)c4ncccc34)CC2)cc1OC | 29.4% | 18.9 µM | 8.82 ×10⁻⁶ cm/s |  |  | 1.08 equiv | 
Cc1c(C)c2c(c(C)c1O)CCC(C)(C(=O)O)O2 (stereo not drawn) |  |  |  |  |  |  | Active
O=C(/C=C/c1ccc(F)cc1F)N1CCN(Cc2ccc(O)c3ncccc23)CC1 | 73.4% | 5.05 µM | 18.6 ×10⁻⁶ cm/s | 62.1% | 52% | 1.57 equiv | 
Oc1c(I)cc(Cl)c2cccnc12 | 25.7% |  |  | 61.4% | 55.3% | 0.53 equiv | 
O=C(O)/C=C/c1ccccc1 |  |  |  |  |  | 1.04 equiv | 
Cc1ccccc1/C=C/C(=O)N1CCN(Cc2ccc(O)c3ncccc23)CC1 | 26.1% | 17.3 µM |  |  |  | 1.52 equiv | 
Oc1ccc(/C=C/c2cc(O)cc(O)c2)cc1 |  |  |  |  |  | 3.28 equiv | 
O=C(CCc1ccc(F)cc1)N1CCN(Cc2ccc(O)c3ncccc23)CC1 | 32.5% | 20.6 µM |  |  |  | 2.32 equiv | 

Now from value to compound, other results behind:

inhibition [2] | IC50 [3] | Papp at 10 h, 100 ug/ml (in vitro) | inhibition [4] | inhibition [5] | SMILES | Activity [1] | Activity (PC-12)
49.9% | 11.4 µM |  |  |  | O=C(/C=C/c1ccc(F)cc1)N1CCN(Cc2ccc(O)c3ncccc23)CC1 | 1.45 equiv | 
13.2% |  |  |  |  | O=C(/C=C/c1ccc([N+](=O)[O-])cc1)N1CCN(Cc2ccc(O)c3ncccc23)CC1 | 0.71 equiv | 
12.3% |  |  |  |  | COc1ccc(/C=C/C(=O)N2CCN(Cc3ccc(O)c4ncccc34)CC2)cc1 | 1.25 equiv | 
18.3% |  | 9.67 ×10⁻⁶ cm/s |  |  | COc1ccc(CCC(=O)N2CCN(Cc3ccc(O)c4ncccc34)CC2)cc1OC | 3.74 equiv | 

Source: ChEMBL document CHEMBL4219257, “Novel 8-hydroxyquinoline derivatives targeting β-amyloid aggregation, metal chelation and oxidative stress against Alzheimer's disease” (Bioorg Med Chem, 2018)
